Assay results as given in ChEMBL document CHEMBL5036349, “Development of potent dual PDK1/AurA kinase inhibitors for cancer therapy: Lead-optimization, structural insights, and ADME-Tox profile” (Eur J Med Chem, 2021).

How the values were obtained:
HEK293 = experiment: Cytotoxicity against HEK293 cells at 10 uM measured after 24 to 48 hrs by Cell-titer glo assay relative to control; assay type: cell-based; conditions: human, hek293, 10 µM, time 24-48 hrs
[1] = target: {'v': 'CYP2C9', 'o': 'p', 'q': 'Inhibition of CYP2C9 (unknown origin)'} (Homo sapiens, UniProt P11712); experiment: Inhibition of CYP2C9 (unknown origin) at 10 uM pre-incubated for 30 min followed by addition of NADPH and measured after 30 min by Luminescence based plate reader method relative to control; assay type: ADME; conditions: time 60 min
[2] = target: T1, Histone deacetylase 8 (Homo sapiens) (UniProt Q9BY41); experiment: Inhibition on human recombinant HDAC8 at 10 uM measured after 20 min by luminescence glo assay
T1 sequence (whole entry): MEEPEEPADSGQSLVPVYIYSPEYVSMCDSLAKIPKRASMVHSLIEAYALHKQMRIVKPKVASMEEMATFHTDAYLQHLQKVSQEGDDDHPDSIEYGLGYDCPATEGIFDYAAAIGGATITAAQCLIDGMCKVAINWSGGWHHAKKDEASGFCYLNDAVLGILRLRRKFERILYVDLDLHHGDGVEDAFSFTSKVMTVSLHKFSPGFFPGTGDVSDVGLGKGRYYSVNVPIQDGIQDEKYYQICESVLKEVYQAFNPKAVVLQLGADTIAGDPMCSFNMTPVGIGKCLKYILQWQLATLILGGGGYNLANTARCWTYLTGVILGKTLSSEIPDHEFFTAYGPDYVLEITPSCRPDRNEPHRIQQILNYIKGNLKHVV

[3] = target: {'v': 'CYP3A4', 'o': 'p', 'q': 'Inhibition of CYP3A4 (unknown origin)'} (Homo sapiens, UniProt P08684); experiment: Inhibition of CYP3A4 (unknown origin) at 10 uM pre-incubated for 30 min followed by addition of NADPH and measured after 30 min by Luminescence based plate reader method relative to control; assay type: ADME; conditions: time 60 min
[4] = target: {'v': 'CYP2D6', 'o': 'p', 'q': 'Inhibition of CYP2D6 (unknown origin)'} (Homo sapiens, UniProt P10635); experiment: Inhibition of CYP2D6 (unknown origin) at 10 uM pre-incubated for 30 min followed by addition of NADPH and measured after 30 min by Luminescence based plate reader method relative to control; assay type: ADME; conditions: time 60 min
[5] = target: Aurora kinase B (Homo sapiens) (UniProt Q96GD4); experiment: Inhibition of Aurora B kinase (unknown origin) at 10 uM in presence of ATP incubated for 30 min followed by addition of kinase glo-reagent measured after 20 mins by Luminescence based plate reader assay relative to control; conditions: time 50.0 min
[6] = target: Histone deacetylase 9 (Homo sapiens) (UniProt Q9UKV0); experiment: Inhibition on human recombinant HDAC9 at 10 uM measured after 20 min by luminescence glo assay
[7] = target: {'v': 'CYP2C19', 'o': 'p', 'q': 'Inhibition of CYP2C19 (unknown origin)'} (Homo sapiens, UniProt P33261); experiment: Inhibition of CYP2C19 (unknown origin) at 10 uM pre-incubated for 30 min followed by addition of NADPH and measured after 30 min by Luminescence based plate reader method relative to control; assay type: ADME; conditions: time 60 min
[8] = target: T2, NAD-dependent protein deacetylase sirtuin-7 (Homo sapiens) (UniProt Q9NRC8); experiment: Inhibition of human recombinant SIRT7 at 10 uM incubated for 20 mins followed by mixing and measure after 30 mins by Luminescence assay relative to control; conditions: time 50.0 min
T2 sequence (whole entry): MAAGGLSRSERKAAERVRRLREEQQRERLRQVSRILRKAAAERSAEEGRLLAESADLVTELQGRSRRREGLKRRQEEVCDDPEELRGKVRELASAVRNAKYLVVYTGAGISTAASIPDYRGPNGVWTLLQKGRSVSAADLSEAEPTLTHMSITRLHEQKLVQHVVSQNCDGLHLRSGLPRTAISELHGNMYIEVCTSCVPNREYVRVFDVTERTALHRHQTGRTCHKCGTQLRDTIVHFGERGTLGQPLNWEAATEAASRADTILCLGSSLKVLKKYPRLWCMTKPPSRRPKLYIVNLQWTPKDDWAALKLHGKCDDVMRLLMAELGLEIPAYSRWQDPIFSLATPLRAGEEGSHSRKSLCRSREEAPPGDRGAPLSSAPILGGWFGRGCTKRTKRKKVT

[9] = target: T3, Protein deacetylase HDAC6 (Homo sapiens) (UniProt Q9UBN7); experiment: Inhibition on human recombinant HDAC6 at 10 uM measured after 20 min by luminescence glo assay
T3 sequence (whole entry): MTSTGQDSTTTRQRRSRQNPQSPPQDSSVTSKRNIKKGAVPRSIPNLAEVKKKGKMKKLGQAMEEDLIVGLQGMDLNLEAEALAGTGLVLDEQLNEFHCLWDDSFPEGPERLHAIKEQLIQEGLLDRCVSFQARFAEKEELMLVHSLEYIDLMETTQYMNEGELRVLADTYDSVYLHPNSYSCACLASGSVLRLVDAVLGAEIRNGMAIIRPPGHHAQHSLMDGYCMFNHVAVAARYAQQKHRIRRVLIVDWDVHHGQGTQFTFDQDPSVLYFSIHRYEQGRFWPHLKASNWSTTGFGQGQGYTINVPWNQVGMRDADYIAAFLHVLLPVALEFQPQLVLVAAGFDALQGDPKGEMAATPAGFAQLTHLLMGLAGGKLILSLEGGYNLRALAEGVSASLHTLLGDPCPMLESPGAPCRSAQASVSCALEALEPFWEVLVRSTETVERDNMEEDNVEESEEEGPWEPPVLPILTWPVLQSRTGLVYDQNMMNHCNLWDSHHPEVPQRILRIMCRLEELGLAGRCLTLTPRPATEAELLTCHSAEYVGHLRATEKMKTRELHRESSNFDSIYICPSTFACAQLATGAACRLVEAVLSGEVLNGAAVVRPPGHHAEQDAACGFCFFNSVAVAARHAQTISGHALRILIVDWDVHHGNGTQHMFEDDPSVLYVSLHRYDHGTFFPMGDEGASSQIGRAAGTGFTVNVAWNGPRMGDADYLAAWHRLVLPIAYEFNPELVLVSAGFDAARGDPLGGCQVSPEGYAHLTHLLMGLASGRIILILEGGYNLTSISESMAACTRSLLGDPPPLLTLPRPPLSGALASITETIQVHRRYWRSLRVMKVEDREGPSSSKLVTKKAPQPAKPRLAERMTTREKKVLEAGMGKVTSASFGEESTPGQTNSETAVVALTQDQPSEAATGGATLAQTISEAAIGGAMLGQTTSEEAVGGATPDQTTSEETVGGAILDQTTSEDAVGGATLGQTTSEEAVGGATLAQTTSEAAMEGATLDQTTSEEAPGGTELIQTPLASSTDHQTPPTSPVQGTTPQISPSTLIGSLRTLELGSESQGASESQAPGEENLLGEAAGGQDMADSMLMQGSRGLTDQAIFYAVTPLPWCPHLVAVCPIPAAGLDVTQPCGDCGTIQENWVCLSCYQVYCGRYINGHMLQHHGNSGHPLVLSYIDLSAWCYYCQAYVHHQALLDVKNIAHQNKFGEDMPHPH

Structure (SMILES): O=C(CCNC(=O)c1cccn(Cc2ccc(F)c(F)c2)c1=O)Nc1ccc2c(c1)/C(=C/c1cnc[nH]1)C(=O)N2
- Activity (HEK293): < 25%
- inhibition at 0.5 h, 10 µM [1]: > 90%
- inhibition [2]: < 30%
- inhibition at 0.5 h, 10 µM [3]: > 90%
- inhibition at 0.5 h, 10 µM [4]: > 90%
- inhibition [5]: < 20%
- inhibition [6]: < 30%
- inhibition at 0.5 h, 10 µM [7]: > 90%
- inhibition [8]: < 30%
- inhibition [9]: < 30%

Structure (SMILES): Cc1c(Br)cc(C(=O)N[C@@H](C(=O)Nc2ccc3c(c2)/C(=C/c2cnc[nH]2)C(=O)N3)c2ccccc2)c(=O)n1Cc1ccc(F)c(F)c1
- Activity (HEK293): < 25%
- inhibition at 0.5 h, 10 µM [1]: < 45%
- inhibition [2]: < 30%
- inhibition at 0.5 h, 10 µM [3]: < 45%
- inhibition at 0.5 h, 10 µM [4]: < 45%
- inhibition [5]: < 20%
- inhibition [6]: < 30%
- inhibition at 0.5 h, 10 µM [7]: < 45%
- inhibition [8]: < 30%
- inhibition [9]: < 30%

Structure (SMILES): Cc1ccc(C(=O)NCC(=O)Nc2ccc3c(c2)/C(=C/c2cnc[nH]2)C(=O)N3)c(=O)n1Cc1ccc(F)c(F)c1
- Activity (HEK293): < 25%
- inhibition at 0.5 h, 10 µM [1]: > 90%
- inhibition [2]: < 30%
- inhibition at 0.5 h, 10 µM [3]: > 90%
- inhibition at 0.5 h, 10 µM [4]: > 90%
- inhibition [5]: < 20%
- inhibition [6]: < 30%
- inhibition at 0.5 h, 10 µM [7]: > 90%
- inhibition [8]: < 30%
- inhibition [9]: < 30%

Structure (SMILES): O=C1Nc2ccc(NC(=O)[C@H](NC(=O)c3cccn(Cc4ccc(F)c(F)c4)c3=O)c3ccccc3)cc2/C1=C/c1cnc[nH]1 (stereo in doubt)
- Activity (HEK293): < 25%
- inhibition [2]: < 30%
- inhibition [5]: < 20%
- inhibition [6]: < 30%
- inhibition [8]: < 30%
- inhibition [9]: < 30%
